In BindingDB's records for doi:10.1080/14756360903179484 (University of Karachi, 2010):

Biological target: T1, Seed linoleate 13S-lipoxygenase-1 (Glycine max, UniProt P08170)
T1 sequence (P08170 whole entry): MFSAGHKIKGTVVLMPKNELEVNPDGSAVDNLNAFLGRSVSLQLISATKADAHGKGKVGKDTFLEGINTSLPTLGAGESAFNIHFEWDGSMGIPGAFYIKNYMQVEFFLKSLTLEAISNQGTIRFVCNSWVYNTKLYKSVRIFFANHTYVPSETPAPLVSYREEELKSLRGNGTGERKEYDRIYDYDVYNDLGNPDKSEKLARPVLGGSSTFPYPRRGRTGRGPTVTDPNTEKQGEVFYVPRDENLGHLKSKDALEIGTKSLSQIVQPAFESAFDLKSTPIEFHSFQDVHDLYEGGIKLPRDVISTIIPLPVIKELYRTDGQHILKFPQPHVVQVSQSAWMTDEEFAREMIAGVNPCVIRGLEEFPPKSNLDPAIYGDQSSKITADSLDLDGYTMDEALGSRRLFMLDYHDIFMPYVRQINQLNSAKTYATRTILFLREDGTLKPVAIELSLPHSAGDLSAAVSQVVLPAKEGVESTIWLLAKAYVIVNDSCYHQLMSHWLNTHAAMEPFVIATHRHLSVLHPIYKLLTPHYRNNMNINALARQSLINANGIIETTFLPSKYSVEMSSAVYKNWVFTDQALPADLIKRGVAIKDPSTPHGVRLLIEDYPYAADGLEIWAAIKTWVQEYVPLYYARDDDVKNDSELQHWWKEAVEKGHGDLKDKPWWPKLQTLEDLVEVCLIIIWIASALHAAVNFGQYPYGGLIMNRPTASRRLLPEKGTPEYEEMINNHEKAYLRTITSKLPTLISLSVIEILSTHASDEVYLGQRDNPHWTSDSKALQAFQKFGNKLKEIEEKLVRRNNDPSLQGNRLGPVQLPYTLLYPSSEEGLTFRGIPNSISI
Assay: Lipoxygenase Inhibition Assay
Settings: pH 8; 25 °C
Procedure: A mixture of test compound (10 μL; 1 mM) in MeOH, type-1B lipoxygenase (EC 1.13.11.12; from soyabean) (20 μL; 70 units) in 0.1 M aqueous phosphate buffer (pH 8.0) in a total volume of 160 μL was incubated for 10 min at 25°C. Then the reaction was initiated by the addition of a solution of linoleic acid as substrate (10 μL; 20 μM), resulting in the formation of (9Z,11E,13S)-13-hydroperoxyoctadeca-9,11-dienoate. The change in UV absorbance at 234 nm was followed over a period of 6 min. All reactions were performed in triplicate, and analyzed with a 96-well plate reader (SpectraMax Plus 384; Molecular Devices).

IC50 | Structure (SMILES)
55.2 µM | COc1cc(-c2coc3cc(O)c(O)cc3c2=O)ccc1O [Conferin (1)]
100 µM | COc1ccc(-c2coc3cc(O)cc(O)c3c2=O)cc1 [5,7-dihydroxy-3-(4-methoxyphenyl)-4H-chromen-4-one]
